From US8697731B2, “Derivatives of 2-pyridin-2-yl-pyrazol-3(2H)-one, preparation and therapeutic use thereof” (Sanofi, priority 2008, dated 2014)

Experiments:
HIF1-alpha = test: Measurement of the stabilization of HIF1-alpha in HEKEA cells (beta-galactosidase complementation); format: cell-based, human; conditions: HEKEA_HIF1-alphaPLBL cells, 6 hours under normoxia, luminescence; molar concentration that produces 50% of the maximum response of this same compound
From the text: Furthermore, a subject of the invention is also a uniform test for the direct measurement by beta-galactosidase complementation of the amount of HIF1-alpha protein in the nucleus of cells, preferably HEK cells, after treating the said cells with one or more test compounds, which consists in: • (a) inoculating, preferably in 384-well plates, the said cells in a suitable culture medium, preferably 1% foetal calf serum (abbreviated as FCS); • (b) adding the test compound(s) at a suitable concentration in a suitable solvent to the cells previously inoculated in the said culture medium; preferably the test compounds are diluted in 0.1% FCS; • (c) incubating the said cells thus prepared in an indicator at about 37° C., advantageously for about 6 hours; • (d) lysing the cells with a lysis buffer containing a chemiluminescent substrate for beta-galactosidase; • (e) incubating in the absence of light, before reading and measuring the luminescence, which is a function of the beta-galactosidase activity.
The test is a cell test based on the principle of enzyme complementation, the enzyme used herein being beta-galactosidase. HEKEA cells are HEK cells stably expressing, and restricted in their nucleus, mutant beta-galactosidase (omega fragment, also known as EA) (line sold by DiscoverX). This construct makes it possible to obtain beta-galactosidase activity only when the protein comprising the Prolabel complementation fragment has migrated into the nucleus.
The protein of interest comprising the Prolabel fragment is in this case an HIF1-alpha or HIF1-alpha mutated at the two prolines 402 and 564 replaced with alanines, is C-terminal fused via molecular biology (DiscoverX vector sold by Clontech) with the small complementation peptide fragment (Prolabel or ED, about 4 kDa). The vector coding for the chimeric protein HIF1-alpha_Prolabel is then transfected into HEKEA cells to obtain stable clones (HEKEA_HIF1-alphaPLBL).
The amount of C-terminal Prolabel-“labelled” HIF1-alpha protein obtained after treating the cells to hypoxia or compounds that are potentially HIF activators is measured by adding to the cells a lysis buffer containing a chemiluminescent substrate for beta-galactosidase.
The measurement of the beta-galactosidase activity will be proportional to the amount of Prolabel and thus of HIF1-alpha that has migrated into the nucleus of the cells.
1.3.1 Experiment Plan • 1) Inoculation of the cells on D0 • 2) Adherence for 24 hours under normoxia • 3) Preparation and addition of the products (Biomek 2000 and FX) on D+1 • 4) Incubation under normoxia for 6 hours • 5) Reading of the plates (by luminescence)
The cells are inoculated with Multidrop in white, opaque-bottomed 384-well plates (Greiner ref 3704), in 30 μl of culture medium (1% FCS) a 10000 cells/well (cell plate).
The test products are prepared at 3×10^−2 M in 100% DMSO and then diluted to 3×10^−4 M in medium containing 0.1% FCS (10 μl in 990 μl of MEM). They are then deposited by hand into column 12 of a round-bottomed 96-well plate (200 μl of each compound) known as the dilution plate (dl). The complete DL plate of 3×10^−4 M to 10^−9 M is then prepared with Biomek 2000 (programme: range of 10 points in series). For the references and controls, 100 μl of DMEM containing 0.1% FCS are added to column 1, 100 μl of Deferoxamine 10^−3M to column 2, wells A B C D and 100 μl of Deferoxamine 5×10^−3 M to column 2, wells E F G H.
3.3 μL are taken from the DL plate by pipetting with a Biomek FX 96 and placed in horizontal duplicate (columns 1 to 24) in each 384-well cell plate (HEKEA_HIF1-alphaPLBL cell plate).
The cells are then placed for 6 hours in an incubator at 37° C. (ambient O2, 6% CO2).
The kit used is the Prolabel chemiluminescent kit (Ref 93-0001 DiscoverX). […]

EPO = test: Measurement of the secretion of EPO by Hep3B hepatocytes (ELISA); format: cell-based; conditions: Homo sapiens, supernatant of Hep3B cells, 18 hours under normoxia, concentration that produces 50% of the maximum response of this same compound
Description: (§1) The test is an ELISA test for measuring VEGF and EPO in the supernatant of Hep3B cells treated under hypoxia or with deferoxamine as controls or with the potential HIF activators. The test was adapted to a 96-well plate, allowing greater compound screening capacity.
(§2) 2.3.1 Experiment Plan • 1) Inoculation of the cells on D0 • 2) Adherence for 6 hours under normoxia • 3) Preparation and addition of the products (Biomek 2000 and FX) • 4) Incubation under normoxia for 18 hours • 5) EPO and VEGF assay in the supernatant on D+1
(§3) The cells are subcultured into 100 μl of culture medium (10% FCS) in black, opaque-bottomed 96-well plates (reference Costar 3916) at 30000 cells/well, with Multidrop.
(§4) The test products are prepared at 10^−2M in 100% DMSO and then diluted to […] in medium containing 0.1% FCS (6 μl in 194 μl of MEM). 200 μl of each compound are deposited in column 12 of a 96-well plate. Dilution ranges from 3×10^−4M to 3×10^−8M are prepared with Biomek 2000 (programme: range of 9 points in series). 100 μl of MEM 0.1% FCS and Deferoxamine 5×10^−3M are added as controls to column 3 and, respectively, to wells A,B,C,D & wells E,F,G,H
(§5) The medium of the cells inoculated the day before into 96-well plates is changed for 90 μl of medium containing 0.1% FCS and 10 μl are distributed with FX 96 from the 96-well DL plates to the cell plates.
(§6) The cell plates thus treated are placed for 18 hours in an incubator at 37° C. (ambient O2, 6% CO2).
(§7) The supernatants (80 μl) of the Hep3B cells in the 96-well plates treated with the potential HIF activators are recovered with a multichannel pipette for simultaneous assay of the VEGF and the EPO by ELISA according to the supplier's instructions (Kit EPO Mesoscale (ref K15122B-2)).
(§8) The activating activity of a compound with respect to HIF is given by the concentration that produces 50% of the maximum response of this same compound in Table IV.

VEGF = test: Measurement of the secretion of VEGF by Hep3B hepatocytes (ELISA); format: cell-based; conditions: Homo sapiens, supernatant of Hep3B cells, 18 hours under normoxia, concentration that produces 50% of the maximum response of this same compound
Description: as §1, §2, §3, §4, §5, §6, §7, §8

SMILES | EC50 (HIF1-alpha) | EC50 (EPO) | melting point | EC50 (VEGF)
O=c1c2c([nH]n1-c1ccc(S(=O)(=O)N3CCCCCC3)cn1)CSC2 [Compound 26, 2-[5-(azepan-1-ylsulfonyl)pyridin-2-yl]-1,2,4,6-tetrahydro-3H-thieno[3,4-c]pyrazol-3-one] | 1500 nM | 1000 nM | 236 °C | 1300 nM
CCN(c1ccccc1)S(=O)(=O)c1ccc(-n2[nH]c3c(c2=O)CN(C(=O)OC(C)(C)C)CC3)nc1 [Compound 28, tert-butyl 2-[5-[ethyl(phenyl)sulfamoyl]pyridin-2-yl]-3-oxo-1,2,3,4,6,7-hexahydro-5H-pyrazolo[4,3-c]pyridine-5-carboxylate] | 1600 nM | 1000 nM | 192 °C | 1000 nM
CCN(c1ccccc1)S(=O)(=O)c1ccc(-n2[nH]c3c(c2=O)CN(C(C)=O)CC3)nc1 [Compound 29, 6-(5-acetyl-3-oxo-1,3,4,5,6,7-hexahydro-2H-pyrazolo[4,3-c]pyridin-2-yl)-N-ethyl-N-phenylpyridine-3-sulfonamide] | 2500 nM | 2500 nM | 118 °C | 2600 nM
